According to ChEMBL document CHEMBL1138444 (J Med Chem, 2009):

Columns and labels:
Mus musculus [1] = species: Mus musculus; assay: animal or person; conditions: NSA, ip, read-out: INH
Rattus norvegicus [2] = species: Rattus norvegicus; assay: animal or person; conditions: Sprague-Dawley, po, read-out: INH
in vitro [3] = conditions: human, microsomes
in vitro [4] = conditions: rat, microsomes
Mus musculus [5] = species: Mus musculus; assay: animal or person; conditions: NSA, ip, read-out: INH; remark: listed apart in the source
in vivo [6] = conditions: rat
in vivo [7] = conditions: rat; remark: listed apart in the source
in vivo [8] = conditions: rat; remark: listed apart in the source
Rattus norvegicus [9] = species: Rattus norvegicus; conditions: in vivo
in vivo [10] = conditions: rat, brain and plasma, ip
in vivo [11] = conditions: rat, po
physchem = conditions: polyethylene glycol

| SMILES | inhibition in vivo at 3 mg/kg (Mus musculus [1]) [%] | inhibition in vivo at 10 mg/kg (Rattus norvegicus [2]) [%] | microsomal CLint (in vitro [3]) [µL/min/mg] | microsomal CLint (in vitro [4]) [µL/min/mg] | inhibition in vivo at 1 mg/kg (Mus musculus [5]) [%] | half-life (in vivo [6]) [h] | Tmax (in vivo [7]) [h] | Cmax (in vivo [8]) [nM] | clearance (Rattus norvegicus [9]) [mL/min/kg] | Kp (in vivo [10]) | bioavailability (in vivo [11]) [%] | solubility (physchem) [mg/mL] |
| --- | --- | --- | --- | --- | --- | --- | --- | --- | --- | --- | --- | --- |
| CC(C)CNC(=O)c1ccc2c(c1)N=C(c1ccc(Cl)s1)c1ccccc1S2 | 73 | 54 |  |  |  |  |  |  |  |  |  |  |
| Cc1c(C(=O)NN2CCCCC2)nn(-c2ccc(Cl)cc2Cl)c1-c1ccc(Cl)cc1 [RIMONABANT] |  | 55 | 41 | 159 | 70 |  |  |  |  |  |  |  |
| O=C(NCc1cccc(Cl)c1)c1ccc2c(c1)N=C(N1CCCCC1)c1ccccc1S2 |  |  | 265 | 644 |  |  |  |  |  |  |  |  |
| CN/C(=N\S(=O)(=O)c1ccc(Cl)cc1)N1C[C@H](c2ccccc2)C(c2ccc(Cl)cc2)=N1 (racemic) [IBIPINABANT] | 82 |  |  |  | 51 |  |  |  |  |  |  |  |
| O=C(NN1CCCCC1)c1ccc2c(c1)N=C(C1CCCCC1)c1ccccc1S2 |  |  | 84 | 846 |  | 2.1 | 0.5 | 651 | 7.36 | 4 | 13 |  |
| O=C(NCc1cccc(Cl)c1)c1ccc2c(c1)N=C(N1CCC(F)(F)CC1)c1ccccc1S2 |  |  | 40 | 66 |  |  |  |  |  |  |  |  |
| CCCCNC(=O)c1ccc2c(c1)N=C(c1ccc(Cl)cc1)c1ccccc1S2 | 82 | 69 | 24 | 89 | 71 | 5.8 | 6 | 677 | 0.51 |  | 25 | > 3.7 |
| CCCCNC(=O)c1ccc2c(c1)N=C(c1ccc(Cl)c(Cl)c1)c1ccccc1S2 | 58 |  |  | 32 |  |  |  |  |  |  |  | > 14 |
| CCCCNC(=O)c1ccc2c(c1)N=C(c1ccc(F)c(Cl)c1)c1ccccc1S2 | 94 | 59 | 16 | 58 | 70 |  |  |  |  |  |  | > 13 |
| CCCC1=Nc2cc(C(=O)NC3CCN(C(=O)OCC)CC3)ccc2Sc2ccccc21 |  |  | 279 | 539 |  |  |  |  |  |  |  |  |
